The assay concerns HCV 1b genotype replicon. Briefly: HCV replicon drug screening assay (quantitative RT-PCR or luciferase), genotype 1b. Format: cell-based. The following applies: Hepatitis C virus; HCV 1b genotype replicon; quantitative RT-PCR or luciferase assay; read-out: Genotype-1b replicon EC50 Range. An excerpt: HCV replicon cell lines (kindly provided by R. Bartenschlager) isolated from colonies as described by Lohman et. al. (Lohman et al. (1999) Science 285: 110-113, expressly incorporated by reference in its entirety) and used for all experiments. The HCV replicon has the nucleic acid sequence set forth in EMBL Accession No.: AJ242651, the coding sequence of which is from nucleotides 1801 to 8406.
The coding sequence of the published HCV replicon was synthesized and subsequently assembled in a modified plasmid pBR322 (Promega, Madison, Wis.) using standard molecular biology techniques. One replicon cell line (“SGR 11-7”) stably expresses HCV replicon RNA which consists of (i) the HCV 5′UTR fused to the first 12 amino acids of the capsid protein, (ii) the neomycin phosphotransferase gene (neo), (iii) the IRES from encephalomyocarditis virus (EMCV), and (iv) HCV NS2 to NS5B genes and the HCV 3′UTR. Another replicon cell line (“Huh-luc/neo-ET”) described by Vrolijk et. al. (Vrolijk et. al. (2003) Journal of Virological Methods 110:201-209, expressly incorporated by reference in its entirety) stably expresses HCV replicon RNA which consists of (i) the HCV 5′UTR fused to the first 12 amino acids of the capsid protein, (ii) the firefly luciferase reporter gene, (iii) the ubiquitin gene, (iv) the neomycin phosphotransferase gene (neo), (v) the IRES from encephalomyocarditis virus (EMCV), and (vi) HCV NS3 to NS5B genes that harbor cell culture adaptive mutations (E1202G, T12801, K1846T) and the HCV 3′UTR.
These cell lines are maintained at 37° C., 5% CO2, 100% relative humidity in DMEM (Cat#11965-084, Invitrogen), with 10% fetal calf serum (“FCS”, Invitrogen), 1% non-essential amino acids (Invitrogen), 1% of Glutamax (Invitrogen), 1% of 100× penicillin/streptomycin (Cat#15140-122, Invitrogen) and Geneticin (Cat#10131-027, Invitrogen) at 0.75 mg/ml or 0.5 mg/ml for 11-7 and Huh-luc/neo-ET cells, respectively.
EC50 values of single agent compounds and combinations were determined by HCV RNA detection using quantitative RT-PCR, according to the manufacturer's instructions, with a TAQMAN® One-Step RT-PCR Master Mix Reagents Kit (Cat#AB 4309169, Applied Biosystems) on an ABI Model 7500 thermocycler. The TaqMan primers to use for detecting and quantifying HCV RNA are 5′-GCTGCGGCCTGTCGAGCT-3′ (SEQ ID NO: 1), 5′-CAAGGTCGTCTCCGCATAC-3′ (SEQ ID NO: 2) and the probe 5′-FAM-[…]-BHQ-3′ (SEQ ID NO: 3) obtained from Integrated DNA Technologies. HCV RNA is normalized to GAPDH RNA levels in drug-treated cells, which is detected and quantified using the Human GAPDH Endogenous Control Mix (Applied Biosystems, AB 4310884E). Total cellular RNA is purified from 96-well plates using the RNAqueous 96 kit (Ambion, Cat#AM1812). Chemical agent cytotoxicity was evaluated using an MTS assay according to the manufacturer's directions (Promega).
The compounds described herein can be effective against the HCV 1b genotype. It should also be understood that the compounds can inhibit multiple genotypes of HCV. In one embodiment, compounds of Formula (I) are active against the 1a, 1b, 2a, 2b, 3a, 4a, and 5a genotypes. […] The EC50 ranges were classified into the following groups: A>10 nM; B 1-10 nM; C<1 nM. The potential cytotoxicities of each agent were analyzed in parallel by MTS assay and are greater than 3 uM for all agents.

Regarding `C=C1C[C@@H](c2nc(-c3ccc(C#Cc4ccc5[nH]c([C@@H]6CC(=C)CN6C(=O)[C@@H](NC(=O)OC)C(C)C)nc5c4)cc3)c[nH]2)N(C(=O)[C@@H](NC(=O)OC)C(C)C)C1` [Compound 119], the EC50 is less than 1 nM. With `COC(=O)N[C@@H](C(=O)N1CCC[C@H]1c1cc(-c2ccc(CCc3ccc4[nH]c([C@@H]5CCCN5C(=O)[C@H](NC(=O)OC)c5ccccc5)nc4c3)cc2)n[nH]1)c1ccccc1` [Compound 42], the EC50 is less than 1 nM.

Consider `COC(=O)N[C@@H](C(=O)N1CCC[C@H]1c1nc2cc(CCCc3ccc4nc([C@@H]5CCCN5C(=O)[C@H](NC(=O)OC)c5ccccc5)[nH]c4c3)ccc2[nH]1)c1ccccc1` [Compound 31], for which the EC50 was less than 1 nM.

Take `COC(=O)N[C@H](C(=O)N1CCC[C@H]1c1nc2cc(-c3ccc4cc(-c5c[nH]c([C@@H]6CCCN6C(=O)[C@@H](NC(=O)OC)[C@@H](C)OC)n5)ccc4c3)ccc2[nH]1)C(C)C` [Compound 52]: the EC50 is less than 1 nM. Take `COC(=O)N[C@@H](C(=O)N1CCC[C@H]1c1ncc(-c2ccc(-c3ccc4[nH]c([C@@H]5CCCN5C(=O)[C@H](NC(=O)OC)c5ccccc5)nc4c3)cc2)[nH]1)c1ccccc1` [Compound 35]: the EC50 is less than 1 nM.

Regarding `COC(=O)N[C@@H](C(=O)N1CCC[C@H]1c1nc2cc(NC(=O)Nc3ccc4nc([C@@H]5CCCN5C(=O)[C@H](NC(=O)OC)c5ccccc5)[nH]c4c3)ccc2[nH]1)c1ccccc1` [Compound 32], the EC50 is more than 10 nM.

Regarding `COC(=O)N[C@H](C(=O)N1CCC[C@H]1c1nc(-c2ccc(CCc3ccc4[nH]c([C@@H]5CCCN5C(=O)[C@@H](NC(=O)OC)C(C)C)nc4c3)cc2)c[nH]1)C(C)C` [Compound 71], the EC50 is less than 1 nM. With `COC(=O)N[C@H](C(=O)N1CCC[C@H]1c1nc2cc(C#Cc3ccc(-c4c[nH]c([C@@H]5CCCN5C(=O)[C@H](NC(=O)OC)C(C)C)n4)cc3)ccc2[nH]1)C(C)C` [Compound 88], the EC50 is less than 1 nM. The same measure for `COC(=O)N[C@@H](C(=O)N1CCC[C@H]1c1ncc(C(=O)N[C@H]2CC[C@H](NC(=O)c3cnc([C@@H]4CCCN4C(=O)[C@H](NC(=O)OC)c4ccccc4)[nH]3)CC2)[nH]1)c1ccccc1` [Compound 120]: more than 10 nM; for `COC(=O)N[C@H](C(=O)N1CCC[C@H]1c1ncc(-c2ccc(C#Cc3ccc4nc([C@@H]5CCCN5C(=O)[C@@H](NC(=O)OC)[C@H](C)O)[nH]c4c3)cc2)[nH]1)C(C)C` [Compound 101]: less than 1 nM; for `COC(=O)N[C@H](C(=O)N1CCC[C@H]1c1nc(-c2ccc(C#Cc3ccc4[nH]c([C@@H]5CCCN5C(=O)[C@@H](NC(=O)OC)[C@@H](C)OC)nc4c3)cc2)c[nH]1)C(C)C` [Compound 80]: less than 1 nM.

On to `COC(=O)N[C@H](C(=O)N1CCC[C@H]1c1ncc(-c2ccc(C#Cc3ccc4nc([C@@H]5C6CCC(CC6)N5C(=O)[C@@H](NC(=O)OC)C(C)C)[nH]c4c3)cc2)[nH]1)C(C)C` [Compound 125], for which the EC50 is less than 1 nM.

`CC[C@H](C)[C@H](NC(=O)OC)C(=O)N1CCC[C@H]1c1nc2cc(-c3ccc(-c4ccc5[nH]c([C@@H]6CCCN6C(=O)[C@@H](NC(=O)OC)[C@@H](C)CC)nc5c4)cc3)ccc2[nH]1` [Compound 26]: the EC50 was less than 1 nM. The same measure for `COC(=O)N[C@H](C(=O)N1CCC[C@H]1c1ncc(-c2ccc(C#Cc3cc4[nH]c([C@@H]5CCCN5C(=O)[C@@H](NC(=O)OC)C(C)C)nc4cc3OC)cc2)[nH]1)C(C)C` [Compound 110]: less than 1 nM; for `COC(=O)N[C@H](C(=O)N1CCC[C@H]1c1nc(-c2ccc(/C=C/c3ccc4[nH]c([C@@H]5CCCN5C(=O)[C@@H](NC(=O)OC)C(C)C)nc4c3)s2)c[nH]1)C(C)C` [Compound 45]: less than 1 nM; for `COC(=O)N[C@H](C(=O)N1CCC[C@H]1c1nc(-c2ccc(C#Cc3ccc4[nH]c([C@@H]5C[C@@H](O)CN5C(=O)[C@@H](NC(=O)OC)C(C)C)nc4c3)cc2)c[nH]1)C(C)C` [Compound 91]: less than 1 nM. The result for `COC(=O)N[C@H](C(=O)N1CCC[C@H]1c1nc(-c2ccc(C#Cc3ccc4[nH]c([C@@H]5CCCN5C(=O)[C@@H](OC(=O)OC)C(C)C)nc4c3)cc2)c[nH]1)C(C)C` [Compound 62] reads less than 1 nM; that for `COC(=O)N[C@H](C(=O)N1CCC[C@H]1c1ncc(-c2ccc(-c3ccc(-c4ccc5nc([C@@H]6CCCN6C(=O)[C@@H](NC(=O)OC)C(C)C)[nH]c5c4)cc3)cc2)[nH]1)C(C)C` [Compound 74], less than 1 nM; that for `COC(=O)N[C@@H](C(=O)N1CCC[C@H]1c1nc(-c2ccc(C#Cc3ccc4[nH]c([C@@H]5CCCN5C(=O)[C@H](NC(=O)OC)c5ccccc5)nc4c3)cc2)n[nH]1)c1ccccc1` [Compound 39], less than 1 nM. The same measure for `CCC(NC(=O)OC)(C(=O)N1CCC[C@H]1c1nc2ccc(C#Cc3ccc(-c4cnc([C@@H]5CCCN5C(=O)[C@@H](NC(=O)OC)C(C)C)[nH]4)cc3)cc2[nH]1)c1ccccc1` (stereo partly shown) [Compound 102]: less than 1 nM; for `COC(=O)N[C@H](C(=O)N1CCC[C@H]1c1nc2cc(-c3ccc4cc(-c5c[nH]c([C@@H]6CCCN6C(=O)[C@@H](NC(=O)OC)[C@@H](C)OC)n5)ccc4c3)ccc2[nH]1)[C@@H](C)O` [Compound 53]: less than 1 nM. Turning to `COC(=O)N[C@H](C(=O)N1CCC[C@H]1c1nc(-c2ccc3cc(-c4ccc5[nH]c([C@@H]6CCCN6C(=O)[C@H](NC(=O)OC)c6ccccc6)nc5c4)ccc3c2)c[nH]1)[C@@H](C)OC` [Compound 51], the EC50 is less than 1 nM. The same measure for `COC(=O)N[C@H](C(=O)N1CCC[C@H]1c1nc(-c2ccc3cc(-c4ccc5[nH]c([C@@H]6[C@H]7CC[C@H](C7)N6C(=O)[C@@H](NC(=O)OC)C(C)C)nc5c4)ccc3c2)c[nH]1)C(C)C` [Compound 129]: less than 1 nM; for `O=C(Cc1ccccn1)N1CCC[C@H]1c1nc2cc(-c3ccc(-c4ccc5[nH]c([C@@H]6CCCN6C(=O)Cc6ccccn6)nc5c4)cc3)ccc2[nH]1` [Compound 22]: less than 1 nM; for `CON=C1C[C@@H](c2nc3cc(C#Cc4ccc(-c5c[nH]c([C@@H]6CCCN6C(=O)[C@@H](NC(=O)OC)C(C)C)n5)cc4)ccc3[nH]2)N(C(=O)[C@@H](NC(=O)OC)C(C)C)C1` [Compound 131]: less than 1 nM. Take `COC(=O)N[C@@H](C(=O)N1CCC[C@H]1c1nc(-c2ccc(/C=C/c3ccc4[nH]c([C@@H]5CCCN5C(=O)[C@H](NC(=O)OC)c5ccccc5)nc4c3)cc2)c[nH]1)c1ccccc1` [Compound 38]: the EC50 was less than 1 nM. The result for `C=C1C[C@@H](c2nc3cc(C#Cc4ccc(-c5c[nH]c([C@@H]6CCCN6C(=O)[C@@H](NC(=O)OC)C(C)C)n5)cc4)ccc3[nH]2)N(C(=O)[C@@H](NC(=O)OC)C(C)C)C1` [Compound 117] reads less than 1 nM.

`COC(=O)N[C@H](C(=O)N1CCC[C@H]1c1nc(C#Cc2ccc(-c3ccc4[nH]c([C@@H]5CCCN5C(=O)[C@@H](NC(=O)OC)C(C)C)nc4c3)cc2)c[nH]1)C(C)C` [Compound 55]: the EC50 is less than 1 nM.

For `COC(=O)N[C@H](C(=O)N1CCC[C@H]1c1nc(-c2ccc(CCCc3ccc4nc([C@@H]5CCCN5C(=O)[C@@H](NC(=O)OC)C(C)C)[nH]c4c3)s2)c[nH]1)C(C)C` [Compound 47], the EC50 was less than 1 nM. The same measure for `COC(=O)N[C@H](C(=O)N1C[C@H](O)C[C@H]1c1ncc(-c2ccc(C#Cc3ccc4nc([C@@H]5CCCN5C(=O)[C@@H](NC(=O)OC)C(C)C)[nH]c4c3)cc2)[nH]1)C(C)C` [Compound 105]: less than 1 nM.

On to `COC(=O)N[C@H](C(=O)N1CCC[C@H]1c1nc(-c2ccc(CCc3ccc4[nH]c([C@@H]5CCCN5C(=O)[C@@H](NC(=O)OC)C(C)C)nc4c3)s2)c[nH]1)C(C)C` [Compound 46], for which the EC50 was less than 1 nM.

Broadly, the EC50 is the concentration giving half of the maximal effect.

Values taken from US9060971B2, “Combination pharmaceutical agents as inhibitors of HCV replication” (Enanta Pharmaceuticals, Inc., priority 2010, dated 2015).
